The values that follow come from PMC6017705, “Discovery of N-(Naphtho[1,2-b]Furan-5-Yl) Benzenesulfonamides as Novel Selective Inhibitors of Triple-Negative Breast Cancer (TNBC)” (Molecules : A Journal of Synthetic Chemistry and Natural …, 2018).

A value given as a limit tells only on which side of the number the result lay.

Common to all, as to assay type: cell-based, human
For one experiment, the system named is MCF-7. Briefly: Cell viability assay (CCK-8), MCF-7. To be noted: Homo sapiens; for inhibition at 5 µg/mL: MCF7. Here is the method: (§1) Four human TNBC cell lines (MDA-MB-231, MDA-MB-453, SUM-159, and BT-20), a non-TNBC breast cancer cell line (MCF-7) and a normal mammary epithelial cell line (MCF-10A) were cultured with DMEM (phenol free) supplemented with 2.5% CS-FBS and 1% L-Glu. 1.2 × 10^3 of cells were seeded into 384-well microplates and maintained for 24 h in an incubator at 37 °C in a 5% CO2, saturated humidified atmosphere. […] […] Then CCK-8 solution was added into cells and incubated for another 4 h. Absorbance was measured with a Microplate Reader at 450/600 nm. The IC50 values of the compounds on TNBC cell lines were derived using GraphPad Prism 5.0 (GraphPad Software, Inc., La Jolla, CA, USA).

In another experiment the test system is MDA-MB-231. Briefly: Cell viability assay (CCK-8), MDA-MB-231. To be noted: for inhibition at 5 µg/mL / IC50: Homo sapiens; for inhibition at 5 µg/mL: MDA-MB-231; for IC50: MDA-MB-231, 72 h, TNBC cell line, CCK-8, 72 h, 0.156 to 40 μM. As to the method: as §1
Another experiment concerns SUM-159. Put plainly: Cell viability assay (CCK-8), SUM-159. The settings on record: for inhibition at 5 µg/mL / IC50: Homo sapiens; for inhibition at 5 µg/mL: SUM159; for IC50: SUM159, 72 h, TNBC cell line, CCK-8, 72 h, 0.156 to 40 μM. As to the method:
as §1

What is called inhibition is the relative decrease from the control value, in per cent. For the molecule `Cc1oc2c(cc(NS(=O)(=O)c3ccc(Cl)cc3)c3ccccc32)c1C(=O)O` [Compound 3-1], the inhibition at 5 µg/mL is -12.2% with MCF-7, 31.4% in the experiment on MDA-MB-231 and -0.754% with SUM-159.

With `CCOC(=O)c1c(C)oc2c1cc(NS(=O)(=O)c1cc(C)c(C)cc1C)c1ccccc12` [Compound 3-2], the figures for the inhibition at 5 µg/mL with MCF-7, with MDA-MB-231 and in the experiment with SUM-159 were 17.7%, 24.3% and -0.884%, respectively.

As to `COC(=O)c1c(C)oc2c1cc(NS(=O)(=O)c1ccc(C(C)C)cc1)c1ccccc12` [Compound 3-4], the inhibition at 5 µg/mL in the experiment with MCF-7 was 14.2%; in the experiment on MDA-MB-231, 37.8%; in the experiment on SUM-159, -0.319%.

In the case of `COC(=O)c1c(C)oc2c1cc(NS(=O)(=O)c1ccc(C)cc1C)c1ccccc12` [Compound 3-5], the inhibition at 5 µg/mL in the experiment with MCF-7 was 22%; with MDA-MB-231 it was 41.1%; with SUM-159, 0.757%.

On to `CCOC(=O)c1c(C)oc2c1cc(NS(=O)(=O)c1ccc3ccccc3c1)c1ccccc12` [Compound 3-6], for which the inhibition at 5 µg/mL with MCF-7 worked out at 7.72%; with MDA-MB-231, 43.4%; in the experiment with SUM-159, 0.292%.

For the molecule `COC(=O)c1c(C)oc2c1cc(NS(=O)(=O)c1ccc3ccccc3c1)c1ccccc12` [Compound 3-7], the inhibition at 5 µg/mL in the experiment on MCF-7 is -4.73%; in the experiment with MDA-MB-231, 0.431%; with SUM-159, 0.085%.

With `CCc1ccc(S(=O)(=O)Nc2cc3c(C(=O)O)c(C)oc3c3ccccc23)cc1` [Compound 3-8], the values for the inhibition at 5 µg/mL in the experiment on MCF-7, in the experiment with MDA-MB-231 and in the experiment on SUM-159 were -6.71%, -1.13% and 0.221%, respectively.

Turning to `COC(=O)c1c(C)oc2c1cc(NS(=O)(=O)c1ccc(F)cc1)c1ccccc12` [Compound 3-10], the inhibition at 5 µg/mL is 34.5% with MCF-7, 64.5% in the experiment on MDA-MB-231 and 35.5% with SUM-159.

Turning to `CCOC(=O)c1c(C)oc2c1cc(NS(=O)(=O)c1ccc(CC)cc1)c1ccccc12` [Compound 3-11], the inhibition at 5 µg/mL with MCF-7 worked out at 13%; in the experiment with MDA-MB-231 it was 41.1%; in the experiment on SUM-159, 0.175%.

On to `CCOC(=O)c1c(C)oc2c1cc(NS(=O)(=O)c1ccc(C(=O)O)cc1)c1ccccc12` [Compound 3-13], for which the inhibition at 5 µg/mL was 5.14% in the experiment on MCF-7, 19.6% with MDA-MB-231 and -0.635% with SUM-159.

As to `COC(=O)c1c(C)oc2c1cc(NS(=O)(=O)c1ccc(C)cc1)c1ccccc12` [Compound 3-14], the inhibition at 5 µg/mL came out at 10.2% in the experiment on MCF-7, 62.8% with MDA-MB-231 and 48.2% in the experiment with SUM-159.

Regarding `COC(=O)c1c(C)oc2c1cc(NS(=O)(=O)c1cc(C)ccc1C)c1ccccc12` [Compound 3-15], the inhibition at 5 µg/mL is 18.5% with MCF-7, 45.6% in the experiment with MDA-MB-231 and 0.037% with SUM-159.

For `CCOC(=O)c1c(C)oc2c1cc(NS(=O)(=O)c1ccc(C)cc1C)c1ccccc12` [Compound 3-16], the inhibition at 5 µg/mL in the experiment with MCF-7 was determined as 43.4%; in the experiment with MDA-MB-231 it was 48.2%; in the experiment on SUM-159, 0.732%.

For orientation: IC50 means the concentration needed to halve the response being measured. Read a high IC50 as weaker potency in that assay. Regarding `COC(=O)c1c(C)oc2c1cc(NS(=O)(=O)c1ccc(F)cc1C)c1ccccc12` [Compound 3-18], the inhibition at 5 µg/mL in the experiment with MCF-7 came to 33.2%; with MDA-MB-231 it was 59.4%; in the experiment with SUM-159, 51.4%. Further, the IC50 in the experiment on MDA-MB-231 came out at 5.2 µM; with SUM-159, 24.2 µM.

As to `Cc1cc(F)ccc1S(=O)(=O)Nc1cc2c(C(=O)O)c(C)oc2c2ccccc12` [Compound 3-19], the inhibition at 5 µg/mL was 16.3% in the experiment on MCF-7, 19.3% in the experiment with MDA-MB-231 and 0.38% in the experiment with SUM-159.

As for `CCc1ccc(S(=O)(=O)Nc2cc3c(C(=O)OC)c(C)oc3c3ccccc23)cc1` [Compound 3-20], the results for the inhibition at 5 µg/mL with MCF-7, with MDA-MB-231 and in the experiment on SUM-159 were 31.2%, 53.5% and 65.4%, respectively. Moreover, the IC50 with MDA-MB-231 was determined as 10 µM; in the experiment with SUM-159, 17 µM.

With `CCOC(=O)c1c(-c2ccccc2)oc2c1cc(NS(=O)(=O)c1ccc(CC)cc1)c1ccccc12` [Compound 3-22], the values for the inhibition at 5 µg/mL in the experiment with MCF-7, with MDA-MB-231 and with SUM-159 were 2.24%, 53.6% and -0.556%, respectively.

Turning to `CCOc1ccc(S(=O)(=O)Nc2cc3c(C(=O)OCCOC)c(C)oc3c3ccccc23)cc1` [Compound 3-23], the inhibition at 5 µg/mL with MCF-7 came out at 14.7%; in the experiment with MDA-MB-231, 62%; with SUM-159, 49.1%.

On to `COC(=O)c1c(C)oc2c1cc(NS(=O)(=O)c1cc(C)c(C)cc1C)c1ccccc12` [Compound 3-24], for which the inhibition at 5 µg/mL in the experiment with MCF-7 was 34.9%; with MDA-MB-231, 46.6%; in the experiment on SUM-159, 0.233%.

For `CCCCCOC(=O)c1c(C)oc2c1cc(NS(=O)(=O)c1ccc(OC)cc1)c1ccccc12` [Compound 3-25], the inhibition at 5 µg/mL in the experiment on MCF-7 stood at 48.3%; in the experiment with MDA-MB-231, 39.5%; in the experiment on SUM-159 it was 61.9%.

On to `Cc1oc2c(cc(NS(=O)(=O)c3ccccc3)c3ccccc32)c1C(=O)OCc1ccccc1` [Compound 3-26], for which the values for the inhibition at 5 µg/mL with MCF-7, in the experiment on MDA-MB-231 and in the experiment on SUM-159 were 25.6%, 51% and 1.58%, respectively.

In the case of `COC(=O)c1c(C)oc2c1cc(NS(=O)(=O)c1cccc3cccnc13)c1ccccc12` [Compound 3-27], the inhibition at 5 µg/mL in the experiment with MCF-7 was determined as 35.5%; in the experiment on MDA-MB-231 it was 48.2%; in the experiment with SUM-159 it was 10.2%.

With `CCCc1oc2c(cc(NS(=O)(=O)c3ccc(OC)cc3)c3ccccc32)c1C(=O)OCC` [Compound 3-28], the inhibition at 5 µg/mL with MCF-7 was determined as 33.4%; with MDA-MB-231 it was 61.9%; with SUM-159 it was 46%. Further, the half-inhibitory concentration (IC50) is more than 40 µM in the experiment with MDA-MB-231 and 14.4 µM in the experiment with SUM-159.

For `COC(=O)c1c(C)oc2c1cc(NS(=O)(=O)c1ccc(Br)cc1)c1ccccc12` [Compound 3-29], the inhibition at 5 µg/mL in the experiment with MCF-7 amounted to 14.5%; with MDA-MB-231, 45%; in the experiment on SUM-159, 1.32%.

In the case of `COC(=O)c1c(C)oc2c1cc(NS(=O)(=O)c1ccccc1)c1ccccc12` [Compound 3-30], the inhibition at 5 µg/mL amounted to 29.3% in the experiment with MCF-7, 50.9% in the experiment with MDA-MB-231 and 0.862% with SUM-159.

Consider `CCOC(=O)c1c(C)oc2c1cc(NS(=O)(=O)c1ccc(C(C)C)cc1)c1ccccc12` [Compound 3-31], for which the values for the inhibition at 5 µg/mL with MCF-7, with MDA-MB-231 and with SUM-159 were 2.95%, 32.1% and -1.33%, respectively.

Regarding `Cc1oc2c(cc(NS(=O)(=O)c3ccc(C(C)C)cc3)c3ccccc32)c1C(=O)O` [Compound 3-32], the results for the inhibition at 5 µg/mL in the experiment on MCF-7, in the experiment with MDA-MB-231 and in the experiment on SUM-159 were -7.57%, 24.7% and -0.964%, respectively.

Consider `COC(=O)c1c(C)oc2c1cc(NS(=O)(=O)c1ccc(Cl)cc1)c1ccccc12` [Compound 3-33], for which the inhibition at 5 µg/mL in the experiment with MCF-7 is 2.82%; in the experiment on MDA-MB-231 it was 32.8%; in the experiment on SUM-159, -0.507%.

As to `COC(=O)c1c(C)oc2c1cc(NS(=O)(=O)c1ccc(C(=O)O)cc1)c1ccccc12` [Compound 3-34], the values for the inhibition at 5 µg/mL with MCF-7, with MDA-MB-231 and in the experiment with SUM-159 were 2.85%, 11% and -0.042%, respectively.

Take `CCOC(=O)c1c(C)oc2c1cc(NS(=O)(=O)c1c(C)cc(C)cc1C)c1ccccc12` [Compound 3-35]: the inhibition at 5 µg/mL stood at 24.5% in the experiment with MCF-7, 33.9% in the experiment on MDA-MB-231 and 0.352% in the experiment on SUM-159.

`CCOC(=O)c1c(C)oc2c1cc(NS(=O)(=O)c1ccc(C)cc1)c1ccccc12` [Compound 3-36]: the inhibition at 5 µg/mL in the experiment on MCF-7 was -4.38%; in the experiment on MDA-MB-231 it was 16.8%; in the experiment on SUM-159, -0.123%.

With `COC(=O)c1c(C)oc2c1cc(NS(=O)(=O)c1c(C)cc(C)cc1C)c1ccccc12` [Compound 3-38], the inhibition at 5 µg/mL worked out at 14.8% in the experiment on MCF-7, 50.6% in the experiment with MDA-MB-231 and 1.35% with SUM-159.

With `Cc1oc2c(cc(NS(=O)(=O)c3ccc(F)cc3)c3ccccc32)c1C(=O)OC(C)C` [Compound 3-39], the inhibition at 5 µg/mL in the experiment with MCF-7 is 4.95%; in the experiment with MDA-MB-231, 42.3%; with SUM-159 it was -0.193%.

As for `CCCc1oc2c(cc(NS(=O)(=O)c3ccc(C(=O)O)cc3)c3ccccc32)c1C(=O)OCC` [Compound 3-40], the inhibition at 5 µg/mL in the experiment on MCF-7 worked out at 2.52%; with MDA-MB-231, 12.5%; in the experiment on SUM-159 it was 0%.

Regarding `Cc1sc(N)c2c(=O)oc3c4ccccc4ccc3c12` [Compound B09], the IC50 with MCF-7 (MCF7, 72 h, non-TNBC breast cancer cell line, CCK-8, 72 h) stood at 1450 nM. In addition, in the experiment on MDA-MB-231, the “growth-inhibitory effect on MDA-MB-231 (in words)” value is “almost no growth-inhibitory effect” and the half-maximal inhibitory concentration (IC50) was approximately 20 µM. Moreover, in the experiment on SUM-159, the “growth-inhibitory effect on SUM-159 (in words)” value is listed as “almost no growth-inhibitory effect” and the IC50 was more than 40 µM.
